The values that follow come from patent US7429579B2, “Tetrahydrobenzazepine derivatives useful as modulators of dopamine D3 receptors (antipsychotic agents)” (SmithKline Beecham, PLC, priority 2000, dated 2008).

Where a name gives a salt, the structure may show the parent alone.

This test has as its target T1, dopamine D3 receptor (Homo sapiens, UniProt P35462).
T1 construct: expressed in transfected cells; host or cells: CHO cells (crude cell membranes)
Nature of the test: Binding experiments on cloned dopamine receptors: displacement of [125I]-Iodosulpride. The note with it: cloned human D3 receptor expressed in CHO cells, [125I]-Iodosulpride displacement; pKi accurate to about ±0.2-0.3. The method, then: Binding Experiments on Cloned Dopamine (e.g. D2, D3 and D4) Receptors
Cultures were grown as monolayers or in suspension in standard cell culture media. Cells were recovered by scraping (from monolayers) or by centrifugation (from suspension cultures), and were washed two or three times by suspension in phosphate buffered saline followed by collection by centrifugation. Cell pellets were stored frozen at −80° C. Crude cell membranes were prepared by homogenisation followed by high-speed centrifugation, and characterisation of cloned receptors achieved by radioligand binding.
Preparation of Cho Cell Membranes: Cell Pellets were Gently Thawed at Room temperature, and resuspended in about 20 volumes of ice-cold Extraction buffer; 5 mM EDTA, 50 mM Trizma pre-set crystals (pH7.4@37° C.), 1 mM MgCl2, 5 mM KCl and 120 mM NaCl. The suspension was homogenised using an Ultra-Turrax at full speed for 15 seconds. The homogenate was centrifuged at 18,000 r.p.m for 15 min at 4° C. in a Sorvall RC5C centrifuge. Supernatant was discarded, and homogenate re-suspended in extraction buffer then centrifugation was repeated. The final pellet was resuspended in 50 mM Trizma pre-set crystals (pH 7.4 @ 37° C.) and stored in 1 ml aliquot tubes at −80° C. (D2=3.0E+08 cells, D3=7.0E+07 cells and D4=1.0E+08 cells).
The total volume is 0.2 ml and incubated in a water bath at 37° C. for 40 minutes. Following incubation, samples were filtered onto GF/B Unifilters using a Can berra Packard Filtermate, and washed four times with ice-cold 50 mM Trizma pre-set crystals (pH 7.4 @ 37° C.). The radioactivity on the filters was measured using a Canberra Packard Topcount Scintillation counter. […] For competition curves, 10 serial log concentrations of competing cold drug were used (Dilution range: 10 μM-10 pM). Competition curves were analysed using Inflexion, an iterative curve fitting programme in Excel. Results were expressed as pKi values where pKi=−log 10 [Ki].

T1 sequence (P35462 whole entry): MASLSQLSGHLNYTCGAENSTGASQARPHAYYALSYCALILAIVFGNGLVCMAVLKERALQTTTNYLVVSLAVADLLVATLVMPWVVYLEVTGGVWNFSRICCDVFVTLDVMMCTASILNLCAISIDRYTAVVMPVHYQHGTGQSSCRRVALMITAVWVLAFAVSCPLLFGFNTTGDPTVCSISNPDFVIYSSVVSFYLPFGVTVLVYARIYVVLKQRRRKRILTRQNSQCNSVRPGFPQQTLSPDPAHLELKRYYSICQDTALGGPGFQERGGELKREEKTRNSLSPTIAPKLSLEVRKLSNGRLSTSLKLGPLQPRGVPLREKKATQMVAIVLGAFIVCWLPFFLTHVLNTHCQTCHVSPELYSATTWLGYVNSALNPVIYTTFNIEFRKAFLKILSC

As usually defined, the Ki is a measure of affinity in units of concentration, obtained from inhibition or displacement. Lower therefore signals a stronger hold on the target. Turning to `Cc1ccc2cc(-c3nnc(CCCCN4CCc5ccc(-c6cc(C)on6)cc5CC4)n3C)ccc2n1` [Example 173, 7-(5-Methyl-3-isoxazolyl)-3-{4-[4-methyl-5-(2-methyl-6-quinolinyl)-4H-1,2,4-triazol-3-yl]butyl}-2,3,4,5-tetrahydro-1H-3-benzazepine hydrochloride], the Ki was 0.316 to 10 nM. `Cc1cc(-c2ccc3c(c2)CCN(CCCCSc2nnc(-c4ccc5ncccc5c4)n2C)CC3)no1` [Example 176, 7-(5-Methyl-3-isoxazolyl)-3-(4-{[4-methyl-5-(6-quinolinyl)-4H-1,2,4-triazol-3-yl]thio}butyl)-2,3,4,5-tetrahydro-1H-3-benzazepine] had a Ki of 0.316 to 10 nM.
